Data published in patent US7138361B2, “Herbicidal heterocycles” (E. I. du Pont de Nemours and Company, priority 2000, dated 2006).

Tests used:
Type in all cases: in vivo
[1] = tested on: barnyardgrass (Echinochloa crus-galli); test: Test C flooded paddy test; settings: for Barnyardgrass plant response rating: Flooded Paddy, scale 0 to 100, 0 no effect, 100 complete control; for Plant response rating, Barnyardgrass: flooded paddy test, scale 0 to 100 (0 no effect, 100 complete control)
Procedure, shortened: (§1)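 Plants were grown to the 2-leaf stage under flooded paddy conditions and treated. They were then kept in a greenhouse for 12 to 14 days and visually rated against untreated controls on a 0–100 scale, where 0 is no effect and 100 is complete control.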

[2] = tested on: duck salad (Heteranthera limosa); test: Test C flooded paddy test; settings: for Ducksalad plant response rating: Flooded Paddy, scale 0 to 100, 0 no effect, 100 complete control; for Plant response rating, Ducksalad: flooded paddy test, scale 0 to 100 (0 no effect, 100 complete control)
Procedure, shortened: as §1

[3] = tested on: smallflower flatsedge (Cyperus difformis); test: Test C flooded paddy test; settings: for Flatsedge plant response rating: Flooded Paddy, scale 0 to 100, 0 no effect, 100 complete control; for Plant response rating, Flatsedge: flooded paddy test, scale 0 to 100 (0 no effect, 100 complete control)
Procedure, shortened: as §1

[4] = tested on: Surinam grass (Brachiaria decumbens); test: Test C preemergence
Procedure, shortened: (§2)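 Herbicidal effect is a visual 0–100 score (100 = complete control) assigned versus untreated plants, 12 to 14 days after spraying in the greenhouse. Test compounds were applied in a non-phytotoxic, surfactant-containing solvent.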

[5] = tested on: giant foxtail (Setaria faberii); test: Test C preemergence
Procedure, shortened: as §2

Sunflower = test: Test C preemergence
[6] = tested on: yellow nutsedge (Cyperus esculentus); test: Test C preemergence
Procedure, shortened: as §2

[7] = tested on: morningglory (Ipomoea hederacea); test: Test C preemergence
Procedure, shortened: as §2

Nightshade = test: Test C preemergence
[8] = tested on: pigweed (Amaranthus retroflexus); test: Test C preemergence
Procedure, shortened: as §2

[9] = tested on: johnsongrass (Sorghum halepense); test: Test C preemergence
Procedure, shortened: as §2

[10] = tested on: cocklebur (Xanthium strumarium); test: Test C preemergence
Procedure, shortened: as §2

corn (Zea mays) = test: Test C preemergence
Procedure, shortened: as §2

[11] = tested on: common ragweed (Ambrosia elatior); test: Test C preemergence
Procedure, shortened: as §2

[12] = tested on: woolly cupgrass (Eriochloa villosa); test: Test C preemergence
Procedure, shortened: as §2

kochia (Kochia scoparia) = test: Test C preemergence
Procedure, shortened: as §2

[13] = tested on: crabgrass (Digitaria sanguinalis); test: Test C preemergence
Procedure, shortened: as §2

[14] = tested on: velvetleaf (Abutilon theophrasti); test: Test C preemergence
Procedure, shortened: as §2

[15] = tested on: lambsquarters (Chenopodium album); test: Test C preemergence
Procedure, shortened: as §2

soybean (Glycine max) = test: Test C preemergence
Procedure, shortened: as §2

[16] = tested on: goosegrass (Eleusine indica); test: Test C preemergence
Procedure, shortened: as §2

[17] = tested on: bermudagrass (Cynodon dactylon); test: Test C preemergence
Procedure, shortened: as §2

[18] = Preemergence, Rate 500 g/ha, scale 0 to 100
[19] = Rate 62 g/ha, scale 0 to 100, 0 no effect, 100 complete control
[20] = preemergence, Rate 250 g/ha, visual evaluation after 12 to 14 days
[21] = preemergence, Rate 125 g/ha, scale 0 to 100, 0 no effect, 100 complete control

O=C1C(n2ccc(C3CCCCC3)n2)SCN1c1cccc(OC(F)(F)F)c1 (centres unmarked) [Compound 50]
50: Plant response rating, Surinam grass [4, 18] | Plant response rating (0 to 100), Surinam grass [4, 20] | Plant response rating, Lambsquarters [15, 21]
0: Plant response rating, Barnyardgrass ([1]; Rate 62 g/ha) | Plant response rating, Ducksalad ([2]; Rate 62 g/ha) | Plant response rating, Foxtail, Giant [5, 21] | Plant response rating, Nutsedge [6, 19] | Plant response rating (0 to 100), Nutsedge [6, 20] | Plant response rating, Nutsedge [6, 21] | Plant response rating, Nightshade (Nightshade; [19]) | Plant response rating, Nightshade (Nightshade; Rate 125 g/ha, scale 0 to 100, 0 no effect, 100 complete control) | Plant response rating, Johnsongrass [9, 19] | Plant response rating, Cocklebur [10, 18] | Plant response rating (0 to 100), Cocklebur [10, 20] | Plant response rating, Cocklebur [10, 21] | Plant response rating, Corn (corn (Zea mays); [18]) | Plant response rating, Corn (corn (Zea mays); [19]) | Plant response rating (0 to 100), Corn (corn (Zea mays); [20]) | Plant response rating, Corn (corn (Zea mays); [21]) | Plant response rating, Kochia (kochia (Kochia scoparia); [19]) | Plant response rating (0 to 100), Kochia (kochia (Kochia scoparia); [20]) | Plant response rating, Kochia (kochia (Kochia scoparia); [21]) | Plant response rating, Velvetleaf [14, 18] | Plant response rating, Velvetleaf [14, 19] | Plant response rating (0 to 100), Velvetleaf [14, 20] | Plant response rating, Velvetleaf [14, 21] | Plant response rating (0 to 100), Soybean (soybean (Glycine max); [20]) | Plant response rating, Soybean (soybean (Glycine max); [21])
70: Barnyardgrass plant response rating ([1]; Rate 250 g/ha) | Plant response rating, Ducksalad ([2]; Rate 125 g/ha) | Plant response rating, Nutsedge [6, 18] | Plant response rating (0 to 100), Johnsongrass [9, 20] | Plant response rating, Lambsquarters [15, 18] | Plant response rating (0 to 100), Lambsquarters [15, 20]
60: Plant response rating, Foxtail, Giant [5, 19] | Plant response rating, Sunflower (Sunflower; Rate 500 g/ha, scale 0 to 100) | Plant response rating, Nightshade (Nightshade; Rate 500 g/ha, scale 0 to 100)
100: Flatsedge plant response rating ([3]; Rate 500 g/ha) | Plant response rating, Foxtail, Giant [5, 18] | Plant response rating, Crabgrass [13, 18] | Plant response rating, Crabgrass [13, 19] | Plant response rating (0 to 100), Crabgrass [13, 20] | Plant response rating, Crabgrass [13, 21] | Plant response rating, Goosegrass [16, 18] | Plant response rating (0 to 100), Goosegrass [16, 20] | Plant response rating, Bermudagrass [17, 18] | Plant response rating, Bermudagrass [17, 19] | Plant response rating (0 to 100 where 0 is no effect and 100 is complete control), Bermudagrass [17, 20] | Plant response rating, Bermudagrass [17, 21]
20: Plant response rating, Surinam grass [4, 19] | Plant response rating (0 to 100), Foxtail, Giant [5, 20] | Plant response rating, Sunflower (Sunflower; [19]) | Plant response rating, Morningglory [7, 19] | Plant response rating (0 to 100), Pigweed [8, 20] | Plant response rating, Pigweed [8, 21] | Plant response rating, Ragweed, Common [11, 19] | Plant response rating, Cupgrass, Woolly [12, 19] | Plant response rating, Cupgrass, Woolly [12, 21] | Plant response rating, Kochia (kochia (Kochia scoparia); [18]) | Plant response rating, Lambsquarters [15, 19]
90: Ducksalad plant response rating ([2]; Rate 500 g/ha) | Flatsedge plant response rating ([3]; Rate 250 g/ha) | Plant response rating, Flatsedge ([3]; Rate 125 g/ha) | Plant response rating, Pigweed [8, 18] | Plant response rating, Johnsongrass [9, 18] | Plant response rating, Cupgrass, Woolly [12, 18] | Plant response rating (0 to 100), Cupgrass, Woolly [12, 20] | Plant response rating, Goosegrass [16, 21]
40: Plant response rating, Barnyardgrass ([1]; Rate 125 g/ha) | Plant response rating, Johnsongrass [9, 21] | Plant response rating, Ragweed, Common [11, 18] | Plant response rating (0 to 100), Ragweed, Common [11, 20] | Plant response rating, Soybean (soybean (Glycine max); [18])
30: Plant response rating, Surinam grass [4, 21] | Plant response rating, Morningglory [7, 18] | Plant response rating (0 to 100), Morningglory [7, 20] | Plant response rating, Morningglory [7, 21] | Plant response rating, Pigweed [8, 19] | Plant response rating, Ragweed, Common [11, 21]
80: Barnyardgrass plant response rating ([1]; Rate 500 g/ha) | Ducksalad plant response rating ([2]; Rate 250 g/ha) | Plant response rating, Flatsedge ([3]; Rate 62 g/ha) | Plant response rating, Goosegrass [16, 19]
